In ChEMBL document CHEMBL1909046, “DrugMatrix in vitro pharmacology data”:

Legend:
[1] = target: T1, Muscarinic acetylcholine receptor M5 (Homo sapiens, UniProt P08912); format: cell membranes, CHO-K1, Membrane; settings: for Ki: read-out: Ki; on all read-outs here: in other assays of this panel Not Active means under 50% inhibition at 10 µM
T1 sequence (P08912 whole entry): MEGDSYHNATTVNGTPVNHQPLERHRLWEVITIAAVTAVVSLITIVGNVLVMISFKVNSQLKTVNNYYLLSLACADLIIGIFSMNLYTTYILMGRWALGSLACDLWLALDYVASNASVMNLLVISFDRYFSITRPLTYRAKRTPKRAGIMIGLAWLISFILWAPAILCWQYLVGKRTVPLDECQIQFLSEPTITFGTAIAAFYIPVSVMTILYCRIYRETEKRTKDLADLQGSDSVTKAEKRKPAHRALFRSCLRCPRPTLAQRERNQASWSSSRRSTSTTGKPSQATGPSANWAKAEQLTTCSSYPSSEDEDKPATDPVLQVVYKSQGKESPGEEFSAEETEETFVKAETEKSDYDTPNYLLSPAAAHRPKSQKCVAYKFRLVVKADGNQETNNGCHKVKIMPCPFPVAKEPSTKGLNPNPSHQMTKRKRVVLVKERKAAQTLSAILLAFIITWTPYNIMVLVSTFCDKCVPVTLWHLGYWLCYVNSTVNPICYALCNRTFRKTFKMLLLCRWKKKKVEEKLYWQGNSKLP

[2] = DRUGMATRIX: Purinergic P2X radioligand binding (ligand: [3H] alpha, beta-Methylene-ATP); format: cell membranes, Oryctolagus cuniculus, New Zealand albino, Urinary bladder, Membrane; settings: Not Active = under 50% inhibition at 10 µM
[3] = target: C-C chemokine receptor type 2 (Homo sapiens, UniProt P41597); format: cell membranes, CHO-K1, Membrane; further: in other assays of this panel Not Active means under 50% inhibition at 10 µM
Cytochrome P450 2C9 = Cytochrome P450 2C9 (Homo sapiens, UniProt P11712); settings: bti-tn-5b1-4; further: in other assays of this panel Not Active means under 50% inhibition at 10 µM
[4] = target: T2, Neuropeptide Y receptor type 1 (Homo sapiens, UniProt P25929); format: cell membranes, Membrane; settings: sk-n-mc; further: in other assays of this panel Not Active means under 50% inhibition at 10 µM
T2 sequence (P25929 whole entry): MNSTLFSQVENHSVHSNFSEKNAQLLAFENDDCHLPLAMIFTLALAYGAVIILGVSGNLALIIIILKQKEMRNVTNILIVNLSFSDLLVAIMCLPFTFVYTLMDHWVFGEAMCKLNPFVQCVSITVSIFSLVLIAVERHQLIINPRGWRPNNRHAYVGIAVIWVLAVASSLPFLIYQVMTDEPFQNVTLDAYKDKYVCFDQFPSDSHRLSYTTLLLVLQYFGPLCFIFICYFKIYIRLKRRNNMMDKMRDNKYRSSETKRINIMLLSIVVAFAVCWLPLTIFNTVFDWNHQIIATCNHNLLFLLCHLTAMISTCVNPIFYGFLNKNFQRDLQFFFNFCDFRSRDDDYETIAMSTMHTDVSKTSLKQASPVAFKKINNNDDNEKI

[5] = target: T3, Muscarinic acetylcholine receptor M4 (Homo sapiens, UniProt P08173); format: cell membranes, CHO-K1, Membrane; settings: for Ki: read-out: Ki
T3 sequence (P08173 whole entry): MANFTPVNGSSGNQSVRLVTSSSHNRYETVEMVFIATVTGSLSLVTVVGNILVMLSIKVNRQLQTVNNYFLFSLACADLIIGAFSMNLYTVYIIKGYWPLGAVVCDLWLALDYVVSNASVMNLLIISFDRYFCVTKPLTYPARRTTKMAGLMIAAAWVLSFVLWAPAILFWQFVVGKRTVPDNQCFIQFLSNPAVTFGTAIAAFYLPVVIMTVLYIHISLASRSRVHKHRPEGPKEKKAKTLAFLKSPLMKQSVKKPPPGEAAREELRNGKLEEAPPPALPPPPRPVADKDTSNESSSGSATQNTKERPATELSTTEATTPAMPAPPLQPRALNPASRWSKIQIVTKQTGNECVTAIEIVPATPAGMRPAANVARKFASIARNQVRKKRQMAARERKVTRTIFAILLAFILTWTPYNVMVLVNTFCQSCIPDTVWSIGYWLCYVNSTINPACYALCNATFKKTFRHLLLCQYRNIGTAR

Glucocorticoid receptor = target: T4, Glucocorticoid receptor (Homo sapiens, UniProt P04150); settings: hela s3; further: in other assays of this panel Not Active means under 50% inhibition at 10 µM
T4 sequence (P04150 whole entry): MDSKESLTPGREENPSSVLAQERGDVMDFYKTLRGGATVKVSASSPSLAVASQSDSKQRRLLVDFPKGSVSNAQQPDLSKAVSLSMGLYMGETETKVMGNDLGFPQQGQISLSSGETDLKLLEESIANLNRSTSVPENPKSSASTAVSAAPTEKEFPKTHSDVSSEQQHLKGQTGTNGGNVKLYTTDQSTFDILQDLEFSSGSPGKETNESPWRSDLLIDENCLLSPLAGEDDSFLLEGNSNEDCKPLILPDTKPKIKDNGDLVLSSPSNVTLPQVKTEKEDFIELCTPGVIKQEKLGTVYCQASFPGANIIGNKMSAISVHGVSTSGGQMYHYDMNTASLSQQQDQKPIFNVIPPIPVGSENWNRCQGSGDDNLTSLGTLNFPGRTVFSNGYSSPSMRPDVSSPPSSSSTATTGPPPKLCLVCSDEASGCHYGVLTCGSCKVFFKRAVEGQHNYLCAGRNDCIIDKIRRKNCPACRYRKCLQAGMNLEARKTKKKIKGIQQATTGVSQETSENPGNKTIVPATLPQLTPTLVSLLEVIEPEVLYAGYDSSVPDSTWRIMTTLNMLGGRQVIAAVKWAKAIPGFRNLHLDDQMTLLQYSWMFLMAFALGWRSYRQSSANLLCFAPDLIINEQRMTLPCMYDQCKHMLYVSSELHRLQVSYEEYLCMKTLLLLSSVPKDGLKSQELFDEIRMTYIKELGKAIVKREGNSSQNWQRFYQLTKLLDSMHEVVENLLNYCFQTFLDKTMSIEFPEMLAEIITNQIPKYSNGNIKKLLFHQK

Sequence of Cytochrome P450 2C9 (P11712 whole entry): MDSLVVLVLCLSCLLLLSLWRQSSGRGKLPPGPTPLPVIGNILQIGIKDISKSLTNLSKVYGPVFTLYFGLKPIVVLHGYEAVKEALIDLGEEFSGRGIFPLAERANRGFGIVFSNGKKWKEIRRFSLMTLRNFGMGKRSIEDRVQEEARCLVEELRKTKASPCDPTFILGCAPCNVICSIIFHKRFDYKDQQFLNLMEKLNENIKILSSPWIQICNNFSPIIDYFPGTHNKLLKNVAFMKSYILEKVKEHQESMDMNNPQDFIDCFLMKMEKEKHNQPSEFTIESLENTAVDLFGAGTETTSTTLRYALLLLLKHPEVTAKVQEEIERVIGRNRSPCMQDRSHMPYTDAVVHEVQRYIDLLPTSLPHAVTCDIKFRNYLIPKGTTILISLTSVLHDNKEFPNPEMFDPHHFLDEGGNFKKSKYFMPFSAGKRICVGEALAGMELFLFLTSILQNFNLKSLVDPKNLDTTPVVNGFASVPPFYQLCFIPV
Sequence of C-C chemokine receptor type 2 (P41597 whole entry): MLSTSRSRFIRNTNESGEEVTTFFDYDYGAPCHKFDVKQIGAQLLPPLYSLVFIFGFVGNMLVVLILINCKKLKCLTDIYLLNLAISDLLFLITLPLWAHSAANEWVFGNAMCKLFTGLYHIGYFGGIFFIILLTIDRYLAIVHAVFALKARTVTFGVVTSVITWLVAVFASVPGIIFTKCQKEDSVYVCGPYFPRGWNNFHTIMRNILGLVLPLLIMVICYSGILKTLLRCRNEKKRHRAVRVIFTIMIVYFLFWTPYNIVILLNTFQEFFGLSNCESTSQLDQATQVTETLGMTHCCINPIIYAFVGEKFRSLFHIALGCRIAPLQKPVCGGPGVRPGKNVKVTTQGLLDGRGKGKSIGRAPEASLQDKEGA

Row | SMILES | IC50 ([1]; cho-k1) | IC50 [2] | Ki [2] | IC50 ([3]; cho-k1) | IC50 (Cytochrome P450 2C9) | Ki (Cytochrome P450 2C9) | IC50 [4] | IC50 ([5]; cho-k1) | IC50 (Glucocorticoid receptor) | IC50 ([1]; read-out: IC50) [nM] | Ki [1] [nM] | IC50 ([3]; read-out: IC50) [nM] | Ki ([3]; read-out: Ki) [nM] | IC50 ([5]; read-out: IC50) [nM] | Ki [5] [nM]
1 | CC(=O)[C@@]1(O)CC[C@H]2[C@@H]3C[C@H](C)C4=CC(=O)CC[C@]4(C)[C@H]3CC[C@@]21C | Not Active | Not Active | Not Active | Not Active | Not Active | Not Active | Not Active | Not Active |  |  |  |  |  |  | 
2 | N[C@@H](Cc1ccc(N(CCCl)CCCl)cc1)C(=O)O | Not Active | Not Active | Not Active | Not Active | Not Active | Not Active | Not Active | Not Active | Not Active |  |  |  |  |  | 
3 | CCCCc1oc2ccccc2c1C(=O)c1cc(I)c(OCCN(CC)CC)c(I)c1 [AMIODARONE] |  |  |  |  |  |  | Not Active |  | Not Active | 1500 | 1080 | 11100 | 4280 | 3630 | 506
4 | OCCN(CCO)c1nc(N2CCCCC2)c2nc(N(CCO)CCO)nc(N3CCCCC3)c2n1 [DIPYRIDAMOLE] | Not Active | Not Active | Not Active | Not Active |  |  | Not Active | Not Active |  |  |  |  |  |  | 
5 | N[C@@H](Cc1cc(I)c(Oc2ccc(O)c(I)c2)c(I)c1)C(=O)O [LIOTHYRONINE] | Not Active |  |  | Not Active |  |  | Not Active | Not Active | Not Active |  |  |  |  |  | 
6 | O=NN(CCCl)C(=O)NC1CCCCC1 [LOMUSTINE] | Not Active | Not Active | Not Active | Not Active | Not Active | Not Active | Not Active | Not Active |  |  |  |  |  |  | 
7 | CCOC(=O)N1CCC(=C2c3ccc(Cl)cc3CCc3cccnc32)CC1 [LORATADINE] | Not Active | Not Active | Not Active | Not Active |  |  | Not Active | Not Active | Not Active |  |  |  |  |  | 
8 | Cn1ccnc1S [METHIMAZOLE] | Not Active | Not Active | Not Active | Not Active | Not Active | Not Active | Not Active | Not Active |  |  |  |  |  |  | 
9 | COc1c(C)c2c(c(O)c1C/C=C(\C)CCC(=O)O)C(=O)OC2 [MYCOPHENOLIC ACID] | Not Active | Not Active | Not Active | Not Active | Not Active | Not Active | Not Active | Not Active |  |  |  |  |  |  | 
10 | CN1CCN(CCCN2c3ccccc3Sc3ccc(Cl)cc32)CC1 [PROCHLORPERAZINE] |  |  |  | Not Active | Not Active | Not Active | Not Active |  | Not Active | 220 | 158 |  |  | 1360 | 190
11 | CO[C@H]1/C=C/O[C@@]2(C)Oc3c(C)c(O)c4c(O)c(c(/C=N/N5CCN(C)CC5)c(O)c4c3C2=O)NC(=O)/C(C)=C\C=C\[C@H](C)[C@H](O)[C@@H](C)[C@@H](O)[C@@H](C)[C@H](OC(C)=O)[C@@H]1C [RIFAMPIN] | Not Active | Not Active | Not Active | Not Active |  |  | Not Active | Not Active |  |  |  |  |  |  | 
12 | Nc1nc2ccc(OC(F)(F)F)cc2s1 [RILUZOLE] | Not Active | Not Active | Not Active | Not Active |  |  | Not Active | Not Active | Not Active |  |  |  |  |  | 
13 | Cc1nc2n(c(=O)c1CCN1CCC(c3noc4cc(F)ccc34)CC1)CCCC2 [RISPERIDONE] | Not Active |  |  | Not Active | Not Active | Not Active | Not Active | Not Active | Not Active |  |  |  |  |  | 
14 | Cc1noc(NS(=O)(=O)c2ccc(N)cc2)c1C [SULFISOXAZOLE] | Not Active | Not Active | Not Active | Not Active | Not Active | Not Active | Not Active | Not Active |  |  |  |  |  |  | 
15 | CSc1ccc(/C=C2/C(C)=C(CC(=O)O)c3cc(F)ccc32)cc1 [SULINDAC SULFIDE] | Not Active | Not Active | Not Active | Not Active | Not Active | Not Active | Not Active | Not Active |  |  |  |  |  |  | 
16 | Nc1c2c(nc3ccccc13)CCCC2 [TACRINE] | Not Active | Not Active | Not Active | Not Active | Not Active | Not Active | Not Active | Not Active |  |  |  |  |  |  | 
17 | CC/C(=C(\c1ccccc1)c1ccc(OCCN(C)C)cc1)c1ccccc1 [TAMOXIFEN] |  |  |  | Not Active |  |  | Not Active |  | Not Active | 2580 | 1860 |  |  | 4820 | 672
18 | CC(C)N1CCN(c2ccc(OCC3COC(Cn4cncn4)(c4ccc(Cl)cc4Cl)O3)cc2)CC1 (stereo not drawn) [TERCONAZOLE] |  | Not Active | Not Active | Not Active | Not Active | Not Active | Not Active |  |  | 4360 | 3130 |  |  | 13700 | 1910
19 | NC[C@H]1CC[C@H](C(=O)O)CC1 [TRANEXAMIC ACID] | Not Active | Not Active | Not Active | Not Active |  |  | Not Active | Not Active |  |  |  |  |  |  | 
20 | CC1(C)O[C@@H]2C[C@H]3[C@@H]4CCC5=CC(=O)C=C[C@]5(C)[C@@]4(F)[C@@H](O)C[C@]3(C)[C@]2(C(=O)CO)O1 [TRIAMCINOLONE ACETONIDE] | Not Active | Not Active | Not Active | Not Active | Not Active | Not Active | Not Active | Not Active |  |  |  |  |  |  | 
21 | NS(=O)(=O)c1cc2c(cc1Cl)NC(C(Cl)Cl)NS2(=O)=O (stereo not drawn) [TRICHLORMETHIAZIDE] | Not Active | Not Active | Not Active | Not Active | Not Active | Not Active | Not Active | Not Active |  |  |  |  |  |  | 
22 | Cc1c(C)c2c(c(C)c1O)CCC(C)(COc1ccc(CC3SC(=O)NC3=O)cc1)O2 (stereo not drawn) [TROGLITAZONE] | Not Active | Not Active | Not Active | Not Active |  |  | Not Active | Not Active |  |  |  |  |  |  | 
23 | N#CC(C#N)=Cc1ccc(O)c(O)c1 [TYRPHOSTIN 23] | Not Active | Not Active | Not Active | Not Active | Not Active | Not Active | Not Active | Not Active |  |  |  |  |  |  | 
